The source of these data is patent US12030908B2, “Antimicrobial compounds, compositions, and uses thereof” (Lakewood Amedex, Inc., priority 2017, dated 2024).

Where “and” joins values, the source holds several entries; their conditions need not be identical. Identical values can stand only once.

The test system of data set [1] is Helicobacter pylori SS1 (CagA+, VacA+). The data set is described as follows: Helicobacter pylori stomach infection model in mice, oral treatment. Type of data set: in vivo, C57/BL6 mice. An excerpt:
The mouse strain used in this study is C57/BL6 ranging from 5-6 weeks in age and 18-22 grams in weight. Mice are housed five to a cage with free access to food and water in accordance with NIH guidelines.
A bacterial strain of Helicobacter pylori SS1 (CagA+, VacA+) is adapted for the mouse model from a human clinical isolate and validated in this infection model.
At 6 days prior to infection, a frozen stock is streaked onto one to two Columbia 5% sheep blood agar plates, and the plates are microaerophilically incubated for 72 hours at 37° C. After 72 hours, the plate growth is subcultured onto five Columbia 5% sheep blood agar plates and is incubated as before. After another 72 hours of incubation, the plates are removed, and the plate growth is suspended in sterile 0.9% saline to an OD of 1.5-2.0 at 530 nm. This OD is approximately equal to 1.0e+09 CFU/mL, which is used to orally infect the mice on all 3 infection days. To infect mice, the mice are orally dosed 0.25 mL of the 1.0e+09 CFU/mL via a 20-22 G gavage needle. Mice need to be fasted only before the first infection.
At 1 week post-infection, mice are treated with Nu-8. Multiple dose antibiotic therapies are administered orally at 0.2 mL/dose. Antibiotics are administered 2 times per day and continued for 7 days. The control group is administered the vehicle alone.
Food is removed from cages 18 hours prior to euthanizing animals and each cage is clearly labeled that the animals are being experimentally fasted. Mice are euthanized (CO2 & cervical dislocation). […] The excised stomach is placed into a sterile petri dish and the luminal contents are rinsed away with sterile 1×PBS. Each rinsed stomach is placed into a 14-mL Falcon tube containing 2 mL of 1×PBS and stored on ice. Each stomach is homogenized, 10-fold serial diluted in 1×PBS, spot plated onto Columbia agar with 3.5% laked horse blood±the DENT selective antibiotic supplement, and microaerophilically incubated for 5 days at 37° C. Then, colonies are counted.
Nu-8 is administered at various doses (mg/kg), orally, twice-a-day for 7 days. The formulations, concentration and dose volumes for treatment is established prior to dosing. The positive control group consists of a triple therapy regimen (omeprazole, amoxicillin, and clarithromycin). Negative control used dosing solution without drugs.

For a further data set, the system named is Haemophilus influenzae. In words: MIC at pH 3.5, CLSI, Mueller-Hinton broth. Type of data set: cell-based. The following applies: 5 isolates.
The test system of data set [2] is Pseudomonas aeruginosa (ATCC27853). In words: Neutropenic lung infection model in mice, aerosol treatment (Example 23). Format: in vivo, BALB/c mice. The following applies: for Mean ± SD (Log10 CFU/g lung) / Log10 CFU/g lung: 10% aerosol, 40 min, 24 h PI; for Log10 CFU/g lung: individual mice. The method, then: Neutropenic, BALB/c female mice, all of which were from 6 to 8 weeks of age, were infected intranasally with Pseudomonas aeruginosa (ATCC27853). Twenty-four hours post infection; animals were treated intra-nasally by nebulization with Nu-8 (10% nebulized for twenty minutes, twice). At two, four and six hours post treatment, animals were terminated; lung tissues were collected to determine the bacterial load.
The mice were separated into cohorts in accordance with Table 11.
On day −4 (four days before the date of infection), each mouse was dosed with a single intraperitoneal injection of cyclophosphamide equivalent to 150 mg/kg and returned to its cage. On day −1 (one day before infection) each mouse received a dose equivalent to 100 mg/kg of cyclophosphamide.
On day −1, an aliquot from glycerol stocks of P. aeruginosa (ATCC27853) was thawed, inoculated into fresh Casein Soybean Digest Broth (CSDB) and incubated overnight at 37 C.
On the day of infection (Day 0), the overnight culture was centrifuged and the cells were pelleted and resuspended in sterile normal saline to obtain approximately 10^9 CFU/ml P. aeruginosa, which was used for infection. The inoculum was serially diluted ten-fold in sterile CSDB broth and 0.05 ml of six dilutions was plated onto CSD Agar plates to determine the viable count (CFU/ml) of inoculum.
Animals were divided into different groups as specified in the experimental design (TABLE 11). Infections were conducted in a biological safety cabinet, with appropriate personnel protection. Mice were placed into an induction chamber and anesthesia was induced by exposing the animals to 3%-5% Isoflurane in an oxygen flow set at approximately 1 liter per minute (LPM). Once the animals were in a sufficiently deep plane of anesthesia, they were removed and infected. Infection was done by instilling 0.02 ml (containing ˜1×10^9 CFU/ml) intra-nasally. 10 μl was instilled into each nostril of the anesthetized animal (˜2×10^7 CFU/animal). A gentle shaking/mixing of inoculum between two animals was followed for uniform distribution.
The vehicle used for the test compound was saline (0.9% NaCl adjusted to pH 3.5 with citric acid). To make 10% solution, 15 g Nu-8 was weighed and dissolved in 145 ml of the saline and the pH of the solution was adjusted to 3.5 with citric acid (0.1 M) in a final volume of 150 ml.
Treatment was initiated twenty four hours post infection. Test formulations were administered by aerosol route with nose only apparatus connected to a nebulizer (Omron Ne-C28 Compressor Nebulizer with a volume capacity of 15 ml, Particle size 3 μm, nebulization rate: 0.5 ml/min, and Aerosol output rate: 0.09 ml/min. At the given aerosol output rate of 0.09 ml/min, a total of 6 animals at the port, each animal will receive 15 μl/min. In 40 min, a total of 60 mg in 600 μl will be delivered to each animal). The formulation prepared previously was placed into the nebulizer fluid cup; animals were placed in the nose only apparatus and the entire system was placed inside a Class II Biosafety Cabinet. Animals received nebulization for 20 min, followed by a 30-minute rest and then an additional 20-minute exposure at the same dose concentration (the flow rate and percentage of test material available at the inhalation port was 16% of the initial concentration in the nebulizer if the test compound is in solution).
Groups of animals were euthanized at 2, 4 and 6 hours post treatment, as specified in experimental design, by an overdose of CO2 in an appropriate exposure chamber.
The euthanized animals were dipped into 70% ethanol for surface decontamination. Lungs were aseptically excised, weighed, placed in a 2 ml centrifuge tube containing 1 ml of sterile CSDB broth, and homogenized (Omni Tip (220THB handheld)). Serial ten-fold dilutions of the lung homogenates were prepared in sterile CSDB broth and 0.05 ml of four dilutions for each lung was plated onto CSDA agar plates. […]

Consider `CCCCOP(=O)(O)OC[C@H]1O[C@@H](n2ccc(N)nc2=O)C[C@@H]1OP(=O)(O)OCCCC` [Nu-8, sodium ((2R,3S,5R)-5-(4-amino-2-oxopyrimidin-1(2H)-yl)-3-((butoxyoxidophosphor-yl)oxy)tetrahydrofuran-2-yl)methyl butyl phosphate], for which the “mean bacterial stomach titers of H. pylori SS1 (Log10)” value in data set [1] (0.2 mg (1 mg/mL, 0.2 mL) PO bid for 7 days, +7 Days) amounted to 5.62 log10 CFU; in data set [1] (0.2 mg (1 mg/mL, 0.2 mL) PO bid for 7 days, +14 Days), 6.2 log10 CFU; in data set [1] (1.0 mg (5 mg/mL, 0.2 mL) PO bid for 7 days, +7 Days), 5.21 log10 CFU; in data set [1] (1.0 mg (5 mg/mL, 0.2 mL) PO bid for 7 days, +14 Days), 5.67 log10 CFU; in data set [1] (2 mg (10 mg/mL, 0.2 mL) PO bid for 7 days, +7 Days), 4.74 log10 CFU; in data set [1] (2 mg (10 mg/mL, 0.2 mL) PO bid for 7 days, +14 Days), 5.81 log10 CFU. Further, in the data set with Haemophilus influenzae, the “Nu-8 MIC (mg/mL) at pH 3.5” value is 4.69-9.38 mg/mL. Further, the “Mean ± SD (Log10 CFU/g lung)” value is 4.92 ± 0.19 Log10 CFU/g lung in data set [2] (2 h post end of treatment), 4.82 ± 0.26 Log10 CFU/g lung in data set [2] (4 h post end of treatment) and 4.68 ± 0.26 Log10 CFU/g lung in data set [2] (6 h post end of treatment). Besides, the “Log10 CFU/g lung” value in data set [2] (2 h post end of treatment) is 4.89 Log10 CFU/g lung and 4.76 Log10 CFU/g lung and 4.94 Log10 CFU/g lung and 4.98 Log10 CFU/g lung and 5.24 Log10 CFU/g lung and 4.70 Log10 CFU/g lung; in data set [2] (4 h post end of treatment) it was 4.51 Log10 CFU/g lung and 5.20 Log10 CFU/g lung and 5.02 Log10 CFU/g lung and 4.64 Log10 CFU/g lung (2×) and 4.88 Log10 CFU/g lung; in data set [2] (6 h post end of treatment), 4.58 Log10 CFU/g lung and 4.53 Log10 CFU/g lung and 5.16 Log10 CFU/g lung and 4.41 Log10 CFU/g lung and 4.60 Log10 CFU/g lung and 4.78 Log10 CFU/g lung. In data set [2] (10%, 2, 4 and 6 hours post administration, p<0.05), the “antibacterial activity vs vehicle control at 2 h and 4 h” value is listed as “significant antibacterial activity”. Moreover, the “animal condition during the study period” value in data set [2] (all groups) is recorded as “no abnormalities were detected”.
